Data: ChEMBL document CHEMBL1201862, “PubChem BioAssay data set” (2004)
Activity calls are given as the source filed them.

How the values were obtained:
[1] = target: Hexokinase-1 (Homo sapiens, UniProt P19367); assay: hexokinase 1 activity inhibitors, potency – biochemical, set 2, resazurin fluorescence coupled readout, selectivity assay for HKDC1 inhibitor project, SAR follow-up (AID 588356); format: functional
[2] = target: T1, Hexokinase HKDC1 (Homo sapiens, UniProt Q2TB90); assay: analog inhibition of human HKDC1 activity – biochemical, set 2, SAR follow-up (AID 588355); format: functional
T1 sequence (Q2TB90 whole entry): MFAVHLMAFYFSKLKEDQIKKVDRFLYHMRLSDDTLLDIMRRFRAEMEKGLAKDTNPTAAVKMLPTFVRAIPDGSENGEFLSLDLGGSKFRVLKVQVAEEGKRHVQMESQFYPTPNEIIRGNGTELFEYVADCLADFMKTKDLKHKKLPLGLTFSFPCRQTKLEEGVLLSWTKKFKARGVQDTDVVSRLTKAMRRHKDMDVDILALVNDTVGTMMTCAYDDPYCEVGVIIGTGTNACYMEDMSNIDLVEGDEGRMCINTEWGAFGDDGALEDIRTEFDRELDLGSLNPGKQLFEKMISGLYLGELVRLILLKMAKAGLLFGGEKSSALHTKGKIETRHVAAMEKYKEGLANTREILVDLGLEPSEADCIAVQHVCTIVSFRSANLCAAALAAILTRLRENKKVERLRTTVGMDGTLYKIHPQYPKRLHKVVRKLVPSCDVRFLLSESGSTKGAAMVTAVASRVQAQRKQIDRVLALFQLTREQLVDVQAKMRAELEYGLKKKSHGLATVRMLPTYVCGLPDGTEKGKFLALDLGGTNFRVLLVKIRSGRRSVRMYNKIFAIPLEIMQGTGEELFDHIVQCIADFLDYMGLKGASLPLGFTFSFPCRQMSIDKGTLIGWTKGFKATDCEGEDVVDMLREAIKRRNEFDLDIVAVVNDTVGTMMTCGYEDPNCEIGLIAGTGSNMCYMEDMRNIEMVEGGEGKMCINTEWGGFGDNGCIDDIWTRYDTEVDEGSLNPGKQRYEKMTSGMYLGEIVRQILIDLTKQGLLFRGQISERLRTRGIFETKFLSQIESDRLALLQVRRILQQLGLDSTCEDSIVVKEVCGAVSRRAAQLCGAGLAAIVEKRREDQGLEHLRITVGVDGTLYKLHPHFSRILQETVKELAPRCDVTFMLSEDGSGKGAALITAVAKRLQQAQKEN

[3] = target: CAAX prenyl protease 2 (Homo sapiens, UniProt Q9Y256); assay: inhibition of Ras-converting CAAX protease Rce1 – biochemical, yeast membranes, quenched-peptide fluorescence, cherry-pick, dose response (AID 588849)
[4] = Luminescence Cell-Based Dose Response HTS to Identify Inhibitors of Luciferase Translation or Activity in H4-C Neuroglioblastoma Cells. [Related pubchem assays: 1813 (Primary HTS), 1827 (Project Summary)]; format: functional
[5] = Luminescence Cell-Based Dose Response HTS to Identify Activators of Luciferase Translation or Activity in H4-C Neuroglioblastoma Cells. [Related pubchem assays: 1829 (Project Summary), 1814 (Primary HTS)]; format: functional
[6] = luciferase reporter signal suppression in cells – H4 neuroglioma cells, luminescence, dose response (AID 1990); format: functional, cell-based
[7] = Luminescence Cell-Based Dose Retest to Confirm Activators of 5'UTR Stem-Loop Driven Alpha-Synuclein mRNA Translation in H4 Neuroglioblastoma Cells. [Related pubchem assays (depositor defined):AID1813, AID1829]; format: functional
[8] = Luminescence Cell-Based Dose Response HTS to Identify Activators of 5'UTR Stem-Loop Driven Prion Protein mRNA Translation in H4-C Neuroglioblastoma Cells. [Related pubchem assays: 1829 (Project Summary), 1814 (Primary HTS)]; format: functional
[9] = Luminescence Cell-Based Dose HTS Response to Identify Inhibitors of 5'UTR Stem-Loop Driven Prion Protein mRNA Translation in H4-C Neuroglioblastoma Cells. [Related pubchem assays (depositor defined):AID1814, AID1827]; format: functional
[10] = Luminescence Cell-Based Dose Response HTS to Identify Inhibitors of 5'UTR Stem-Loop Driven Prion Protein mRNA Translation in H4 Neuroglioblastoma Cells. [Related pubchem assays: 1827 (Project Summary), 1813 (Primary HTS)]; format: functional
[11] = alpha-synuclein stem-loop luciferase translation blockers – H4 neuroglioma cells, luminescence, confirmation (AID 1988); format: functional, cell-based
[12] = Luminescence Cell-Based Dose Confirmation HTS to Identify Inhibitors of 5'UTR Stem-Loop Driven Alpha-Synuclein mRNA Translation in H4 Neuroglioblastoma Cells. [Related pubchem assays: 1827 (Project Summary), 1813 (Primary HTS)]; format: functional
[13] = test system: HeLa; assay: viability loss in HeLa cells – cell-based, 24 h, cherry-picked samples, cytotoxicity control, dose response (AID 504726); format: functional; details: Homo sapiens;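 further: potency for cytotoxicity as loss of luminescence signal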
[14] = target: ORF 73 (Human herpesvirus 8, UniProt O40947); assay: KSHV LANA DNA-binding disruption – biochemical, fluorescence polarization, cherry-picked samples, dose response (AID 504725); parameters: species or system Human gammaherpesvirus 8;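 further: fluorescence polarization of a labeled DNA duplex reporting LANA DNA binding; potency is for inhibitors that block LANA binding to the DNA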
[15] = target: Troponin, cardiac muscle (Homo sapiens, UniProt P19429+P45379+P63316); assay: Fluorescence-based biochemical high throughput dose response assay for activators of the calcium sensitivity of cardiac Regulated Thin Filaments (RTF). [Related pubchem assays (depositor defined):AID493008, AID493018, AID504382, AID504383]; format: protein-complex assay
[16] = target: UDP-galactopyranose mutase (Mycobacterium tuberculosis, UniProt P9WIQ1); assay: Inhibitors of Mycobacterium tuberculosis UDP-galactopyranose mutase (UGM) enzyme Measured in Biochemical System Using Plate Reader - 2105-02_Inhibitor_Dose_CherryPick_Activity. [Related pubchem assays (depositor defined):AID504439]
[17] = target: Keap1/Nrf2 (Homo sapiens, UniProt Q14145); assay: disruptors of Keap1 binding to Nrf2 peptide – biochemical, fluorescence polarization, cherry-picked samples, dose response (AID 588683)
[18] = target: T2, Short transient receptor potential channel 4 (Mus musculus, UniProt Q9QUQ5); assay: calcium entry via TRPC4 opening agents – cell-based, HEK293 TRPC4/mu-opioid, Fluo-4 calcium, dose response (AID 434937); format: functional
T2 sequence (Q9QUQ5 whole entry): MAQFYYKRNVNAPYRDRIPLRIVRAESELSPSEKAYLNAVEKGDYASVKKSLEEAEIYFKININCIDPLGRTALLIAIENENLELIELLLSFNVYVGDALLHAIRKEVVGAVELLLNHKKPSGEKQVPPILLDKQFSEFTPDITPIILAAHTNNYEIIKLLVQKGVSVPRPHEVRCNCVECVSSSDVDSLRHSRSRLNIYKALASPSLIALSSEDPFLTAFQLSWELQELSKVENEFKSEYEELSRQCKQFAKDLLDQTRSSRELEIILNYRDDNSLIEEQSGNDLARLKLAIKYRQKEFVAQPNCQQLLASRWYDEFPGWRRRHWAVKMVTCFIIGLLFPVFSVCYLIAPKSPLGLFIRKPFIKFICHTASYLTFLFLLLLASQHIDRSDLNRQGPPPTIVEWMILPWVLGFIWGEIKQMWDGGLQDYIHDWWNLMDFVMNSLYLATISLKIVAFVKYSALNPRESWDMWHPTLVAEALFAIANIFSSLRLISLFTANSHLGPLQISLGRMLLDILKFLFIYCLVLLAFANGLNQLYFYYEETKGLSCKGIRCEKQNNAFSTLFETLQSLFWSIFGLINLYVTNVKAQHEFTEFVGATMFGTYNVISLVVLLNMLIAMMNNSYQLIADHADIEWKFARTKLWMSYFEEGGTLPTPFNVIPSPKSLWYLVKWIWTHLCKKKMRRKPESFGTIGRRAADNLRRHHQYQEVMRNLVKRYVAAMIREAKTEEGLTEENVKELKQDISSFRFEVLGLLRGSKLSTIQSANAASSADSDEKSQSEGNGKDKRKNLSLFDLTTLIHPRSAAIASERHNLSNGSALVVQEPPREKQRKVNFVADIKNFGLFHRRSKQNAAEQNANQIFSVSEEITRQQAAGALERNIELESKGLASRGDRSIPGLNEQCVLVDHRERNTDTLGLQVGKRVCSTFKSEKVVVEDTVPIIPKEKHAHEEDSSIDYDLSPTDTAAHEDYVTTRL

[19] = target: Delta-type opioid receptor (Homo sapiens, UniProt P41143); assay: Counterscreen for agonists of heterodimerization of the mu 1 (OPRM1) and delta 1 (OPRD1) opioid receptors: Luminescence-based cell-based high throughput dose response assay to identify agonists of OPRD1 homodimerization. [Related pubchem assays (depositor defined):AID504326, AID504355, AID504692, AID504904, AID504905]; format: functional
[20] = target: Mu-type opioid receptor (Homo sapiens, UniProt P35372); assay: Counterscreen for agonists of heterodimerization of the mu 1 (OPRM1) and delta 1 (OPRD1) opioid receptors: Luminescence-based cell-based high throughput dose response assay to identify agonists of OPRM1 homodimerization.; format: functional;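 further: U2OS cells expressing OPRM1 and beta-arrestin as split beta-galactosidase partners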
[21] = target: 5-hydroxytryptamine receptor 5A (Homo sapiens, UniProt P47898); assay: Counterscreen for agonists of OPRM1-OPRD1 heterodimerization: luminescence-based cell-based high throughput dose response assay to identify agonists of 5-hydroxytryptamine (serotonin) 5A receptor (HTR5A). [Related pubchem assays (depositor defined):AID504326, AID504355, AID504692, AID504904, AID504905]; format: functional
[22] = target: Cytochrome P450 2D6 (Homo sapiens, UniProt P10635);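 further: CYP2D6 member of a cytochrome P450 panel assay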
[23] = Luminescence Cell-Based Dose Retest to Confirm Inhibitors of Cancer Stem Cells. [Related pubchem assays (depositor defined):AID2717, AID2721]; format: functional; details: Homo sapiens
[24] = target: Intestinal-type alkaline phosphatase (Mus musculus, UniProt P24822); assay: PubChem AID 488875; format: functional
[25] = target: T3, Intestinal-type alkaline phosphatase (Homo sapiens, UniProt P09923); assay: human intestinal alkaline phosphatase activators, dose response, biochemical, luminescence, uHTS hits (AID 463120); format: functional
[26] = target: T3, Intestinal-type alkaline phosphatase; assay: activation of human intestinal alkaline phosphatase – biochemical, luminescent, uHTS hits, set 2, dose response (AID 488817); format: functional;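 further: potency of activators that raise enzyme activity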
[27] = target: T4, Alkaline phosphatase, tissue-nonspecific isozyme (Homo sapiens, UniProt P05186); assay: activation of tissue-nonspecific alkaline phosphatase – biochemical, TNAP isozyme, human IAP uHTS hits, selectivity assay for human IAP activator project, dose response (AID 488886); format: functional;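 further: potency of compounds raising TNAP activity as a selectivity check on IAP activators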
T4 sequence (P05186 whole entry): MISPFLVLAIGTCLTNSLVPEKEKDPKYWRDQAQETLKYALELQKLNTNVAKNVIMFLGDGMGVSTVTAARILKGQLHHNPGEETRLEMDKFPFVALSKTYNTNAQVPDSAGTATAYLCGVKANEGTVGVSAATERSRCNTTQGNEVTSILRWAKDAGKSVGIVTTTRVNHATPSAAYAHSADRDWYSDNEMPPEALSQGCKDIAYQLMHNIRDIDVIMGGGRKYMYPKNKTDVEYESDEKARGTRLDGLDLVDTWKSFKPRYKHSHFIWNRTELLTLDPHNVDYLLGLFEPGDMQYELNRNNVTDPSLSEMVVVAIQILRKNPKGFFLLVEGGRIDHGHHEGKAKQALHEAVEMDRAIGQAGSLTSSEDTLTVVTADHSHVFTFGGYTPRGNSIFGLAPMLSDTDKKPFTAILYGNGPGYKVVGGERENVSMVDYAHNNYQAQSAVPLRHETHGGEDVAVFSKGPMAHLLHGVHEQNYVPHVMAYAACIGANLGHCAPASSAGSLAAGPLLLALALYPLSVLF

[28] = test system: Escherichia coli; assay: microbe, parasite or virus in culture

T3 sequence (P09923 whole entry): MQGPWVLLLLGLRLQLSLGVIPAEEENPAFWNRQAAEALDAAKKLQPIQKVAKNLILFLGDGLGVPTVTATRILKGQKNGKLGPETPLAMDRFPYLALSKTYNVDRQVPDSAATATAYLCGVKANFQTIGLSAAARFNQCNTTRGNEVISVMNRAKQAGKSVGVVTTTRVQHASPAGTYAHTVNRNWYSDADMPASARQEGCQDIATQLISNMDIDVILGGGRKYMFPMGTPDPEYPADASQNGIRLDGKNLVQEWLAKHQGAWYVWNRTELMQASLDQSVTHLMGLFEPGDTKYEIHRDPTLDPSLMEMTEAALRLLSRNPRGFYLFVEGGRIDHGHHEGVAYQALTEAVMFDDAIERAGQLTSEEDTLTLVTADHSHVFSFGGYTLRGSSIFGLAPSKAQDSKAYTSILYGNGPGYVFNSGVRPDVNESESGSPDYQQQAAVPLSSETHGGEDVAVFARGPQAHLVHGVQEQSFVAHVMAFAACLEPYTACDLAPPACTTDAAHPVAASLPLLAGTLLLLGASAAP
Sequence of Delta-type opioid receptor (P41143 whole entry): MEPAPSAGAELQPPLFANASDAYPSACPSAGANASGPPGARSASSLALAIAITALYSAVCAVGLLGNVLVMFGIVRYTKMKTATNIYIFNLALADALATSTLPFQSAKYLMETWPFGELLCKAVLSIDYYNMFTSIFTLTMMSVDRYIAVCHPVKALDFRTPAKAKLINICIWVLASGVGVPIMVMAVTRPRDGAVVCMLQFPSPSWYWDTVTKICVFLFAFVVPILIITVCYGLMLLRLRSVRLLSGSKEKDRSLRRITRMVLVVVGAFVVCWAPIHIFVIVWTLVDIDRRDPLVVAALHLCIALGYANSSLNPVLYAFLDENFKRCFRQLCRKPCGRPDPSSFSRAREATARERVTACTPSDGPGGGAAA
Sequence of CAAX prenyl protease 2 (Q9Y256 whole entry): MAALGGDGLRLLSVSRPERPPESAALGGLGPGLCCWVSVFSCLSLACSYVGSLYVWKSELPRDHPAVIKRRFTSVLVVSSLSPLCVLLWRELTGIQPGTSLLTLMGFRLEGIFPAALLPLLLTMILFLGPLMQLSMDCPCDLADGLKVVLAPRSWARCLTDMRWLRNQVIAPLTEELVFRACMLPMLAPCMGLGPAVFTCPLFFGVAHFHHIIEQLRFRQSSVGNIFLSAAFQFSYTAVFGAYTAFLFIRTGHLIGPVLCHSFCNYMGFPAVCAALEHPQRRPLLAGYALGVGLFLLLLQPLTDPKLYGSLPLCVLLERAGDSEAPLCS
Sequence of Cytochrome P450 2D6 (P10635 whole entry): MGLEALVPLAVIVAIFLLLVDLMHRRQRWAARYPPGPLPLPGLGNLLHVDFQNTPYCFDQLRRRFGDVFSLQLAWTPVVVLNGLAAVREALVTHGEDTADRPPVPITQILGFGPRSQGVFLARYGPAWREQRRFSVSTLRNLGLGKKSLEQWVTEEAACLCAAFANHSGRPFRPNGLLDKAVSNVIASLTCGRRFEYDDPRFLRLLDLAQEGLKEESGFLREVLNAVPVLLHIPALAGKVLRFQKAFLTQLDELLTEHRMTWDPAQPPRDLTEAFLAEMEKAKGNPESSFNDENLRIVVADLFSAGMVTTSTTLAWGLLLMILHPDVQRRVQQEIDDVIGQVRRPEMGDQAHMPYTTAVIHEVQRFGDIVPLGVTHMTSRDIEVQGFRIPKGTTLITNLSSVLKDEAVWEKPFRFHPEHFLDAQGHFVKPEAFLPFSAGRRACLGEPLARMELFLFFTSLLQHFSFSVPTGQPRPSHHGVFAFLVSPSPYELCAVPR
Sequence of Keap1/Nrf2 (Q16236 whole entry): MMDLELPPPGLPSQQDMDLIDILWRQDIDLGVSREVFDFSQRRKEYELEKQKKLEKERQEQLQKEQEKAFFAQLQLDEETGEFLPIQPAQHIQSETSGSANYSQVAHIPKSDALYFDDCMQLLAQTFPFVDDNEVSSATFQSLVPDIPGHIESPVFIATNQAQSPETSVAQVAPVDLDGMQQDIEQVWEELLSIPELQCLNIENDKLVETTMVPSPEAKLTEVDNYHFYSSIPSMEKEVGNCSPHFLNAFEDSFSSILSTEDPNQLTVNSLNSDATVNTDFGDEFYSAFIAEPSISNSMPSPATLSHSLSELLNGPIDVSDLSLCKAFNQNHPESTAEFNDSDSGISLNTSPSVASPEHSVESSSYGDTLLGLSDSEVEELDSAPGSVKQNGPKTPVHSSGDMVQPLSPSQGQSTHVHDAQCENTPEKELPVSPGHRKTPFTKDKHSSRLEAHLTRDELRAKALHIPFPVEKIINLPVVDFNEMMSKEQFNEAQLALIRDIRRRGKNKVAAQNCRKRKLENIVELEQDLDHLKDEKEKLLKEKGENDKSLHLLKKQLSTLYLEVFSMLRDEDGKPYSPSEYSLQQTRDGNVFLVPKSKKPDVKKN
Sequence of Keap1/Nrf2 (Q14145 whole entry): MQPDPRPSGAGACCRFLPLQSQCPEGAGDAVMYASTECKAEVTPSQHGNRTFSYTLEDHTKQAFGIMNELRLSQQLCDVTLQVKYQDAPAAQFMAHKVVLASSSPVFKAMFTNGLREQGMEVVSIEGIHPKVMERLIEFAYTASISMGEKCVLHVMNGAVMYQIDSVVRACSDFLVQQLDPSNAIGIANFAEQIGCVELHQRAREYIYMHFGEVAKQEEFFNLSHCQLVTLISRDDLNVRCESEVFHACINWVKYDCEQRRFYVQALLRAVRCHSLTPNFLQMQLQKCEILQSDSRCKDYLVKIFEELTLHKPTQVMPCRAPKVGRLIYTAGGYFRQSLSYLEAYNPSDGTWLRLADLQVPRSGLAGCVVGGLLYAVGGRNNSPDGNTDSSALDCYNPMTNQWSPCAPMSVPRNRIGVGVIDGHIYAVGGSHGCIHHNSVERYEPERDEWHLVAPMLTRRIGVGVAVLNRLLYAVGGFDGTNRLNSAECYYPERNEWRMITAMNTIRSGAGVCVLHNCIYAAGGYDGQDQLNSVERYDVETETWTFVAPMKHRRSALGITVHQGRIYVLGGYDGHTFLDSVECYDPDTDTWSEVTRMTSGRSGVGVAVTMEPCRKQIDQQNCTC
Sequence of ORF 73 (O40947 whole entry): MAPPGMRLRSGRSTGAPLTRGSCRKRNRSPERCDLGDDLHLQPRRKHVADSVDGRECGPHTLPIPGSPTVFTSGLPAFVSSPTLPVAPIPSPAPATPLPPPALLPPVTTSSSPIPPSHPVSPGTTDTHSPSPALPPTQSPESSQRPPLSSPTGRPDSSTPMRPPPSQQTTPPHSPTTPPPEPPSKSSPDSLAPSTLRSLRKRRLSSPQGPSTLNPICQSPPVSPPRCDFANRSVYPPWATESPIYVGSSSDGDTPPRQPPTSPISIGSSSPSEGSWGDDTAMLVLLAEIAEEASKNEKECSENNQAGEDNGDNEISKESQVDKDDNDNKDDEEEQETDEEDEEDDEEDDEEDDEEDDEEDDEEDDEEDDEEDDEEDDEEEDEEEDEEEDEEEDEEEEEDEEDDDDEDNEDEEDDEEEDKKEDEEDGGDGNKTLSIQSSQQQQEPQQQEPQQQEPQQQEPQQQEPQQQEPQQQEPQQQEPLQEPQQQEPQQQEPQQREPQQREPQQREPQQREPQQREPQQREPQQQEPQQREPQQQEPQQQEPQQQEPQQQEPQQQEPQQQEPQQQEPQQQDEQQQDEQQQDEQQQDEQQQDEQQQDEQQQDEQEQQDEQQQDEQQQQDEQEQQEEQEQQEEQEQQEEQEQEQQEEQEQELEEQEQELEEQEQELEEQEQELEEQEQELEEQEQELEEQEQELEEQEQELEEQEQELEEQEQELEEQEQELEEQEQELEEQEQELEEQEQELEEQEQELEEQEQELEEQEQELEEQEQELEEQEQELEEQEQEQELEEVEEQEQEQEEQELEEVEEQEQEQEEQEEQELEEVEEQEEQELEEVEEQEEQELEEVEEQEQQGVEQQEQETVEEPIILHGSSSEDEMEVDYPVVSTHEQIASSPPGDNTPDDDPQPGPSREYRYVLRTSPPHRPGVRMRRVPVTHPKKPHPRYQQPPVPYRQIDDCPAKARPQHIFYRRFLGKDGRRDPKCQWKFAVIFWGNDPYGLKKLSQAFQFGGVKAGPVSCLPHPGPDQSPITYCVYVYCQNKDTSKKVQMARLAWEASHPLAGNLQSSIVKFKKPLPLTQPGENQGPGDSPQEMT
Sequence of UDP-galactopyranose mutase (P9WIQ1 whole entry): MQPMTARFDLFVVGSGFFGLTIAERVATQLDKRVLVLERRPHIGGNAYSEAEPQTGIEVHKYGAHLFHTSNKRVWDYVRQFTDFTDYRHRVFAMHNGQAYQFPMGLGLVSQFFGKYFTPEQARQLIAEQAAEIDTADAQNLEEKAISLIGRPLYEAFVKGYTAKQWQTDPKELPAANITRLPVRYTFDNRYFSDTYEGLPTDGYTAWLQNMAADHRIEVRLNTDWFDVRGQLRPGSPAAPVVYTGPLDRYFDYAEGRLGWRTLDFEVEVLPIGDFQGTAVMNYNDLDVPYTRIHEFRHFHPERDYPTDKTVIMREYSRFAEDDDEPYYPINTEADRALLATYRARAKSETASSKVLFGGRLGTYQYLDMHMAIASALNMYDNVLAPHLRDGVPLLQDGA
Sequence of Intestinal-type alkaline phosphatase (Mus musculus, UniProt P24822) (P24822 whole entry): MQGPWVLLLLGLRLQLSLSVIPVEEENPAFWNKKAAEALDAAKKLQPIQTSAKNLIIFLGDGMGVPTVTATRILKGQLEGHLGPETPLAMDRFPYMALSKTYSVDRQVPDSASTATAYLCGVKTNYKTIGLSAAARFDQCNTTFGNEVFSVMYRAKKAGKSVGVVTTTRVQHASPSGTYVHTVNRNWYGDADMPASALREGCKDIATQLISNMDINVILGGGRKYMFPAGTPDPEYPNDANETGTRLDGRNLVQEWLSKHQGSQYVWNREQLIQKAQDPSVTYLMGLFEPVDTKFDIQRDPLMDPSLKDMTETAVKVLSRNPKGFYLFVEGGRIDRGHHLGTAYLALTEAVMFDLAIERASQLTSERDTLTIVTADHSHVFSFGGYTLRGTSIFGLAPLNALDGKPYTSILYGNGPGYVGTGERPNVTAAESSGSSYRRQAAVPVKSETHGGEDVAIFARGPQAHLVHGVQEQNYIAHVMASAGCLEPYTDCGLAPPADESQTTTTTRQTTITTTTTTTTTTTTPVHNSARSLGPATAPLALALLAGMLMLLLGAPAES

COc1cc2c(cc1OC)-c1cc(NCCO)nc(=O)n1CC2
IC50 [1]: > 80 µM (inactive) | IC50 [2]: > 80 µM (inactive)

CC(C)C(NC(=O)c1ccco1)C(=O)NCC(c1ccco1)N1CCCCC1 (stereo not drawn)
AC50 [3]: 48.9 µM (active)

O=C(OCCN1C(=O)c2cccc3c(N4CCOCC4)ccc(c23)C1=O)c1ccc(Cl)cc1Cl
EC50 [4]: 2.14 µM (active) | EC50 [5]: 2.14 µM (inconclusive) | EC50 [6]: 9.06 µM (inconclusive) | EC50 [7]: 6.15 µM (inconclusive) | EC50 [8]: 0.722 µM (inconclusive) | EC50 [9]: 0.722 µM (active) | EC50 [10]: 12 µM (active) | EC50 [11]: 0.331 µM (active) | EC50 [12]: 6.15 µM (active) | AC50 [13]: 16.5 µM (active) | AC50 [14]: 15.5 µM (active) | EC50 [15]: 1.11 µM (active) | AC50 [16]: 5.23 µM (active) | AC50 [17]: 7.59 µM (active)

CCC(=O)OC1(c2cccc(C)c2)CC(C)N(C)CC1C (stereo not drawn)
EC50 [18]: 0.335 µM (active) | EC50 [19]: > 92.5 µM (inactive) | EC50 [20]: > 92.5 µM (inactive) | EC50 [21]: > 92.5 µM (inactive)

Cc1cn([C@H]2C[C@H](O)[C@@H](COC(N)=O)O2)c(=O)[nH]c1=O
AC50 [22]: inconclusive

Cc1ccc(-c2cc(C(=O)N/N=C/c3ccccc3O)[nH]n2)o1
AC50 [23]: 8.36 µM (active) | EC50 [24]: > 100 µM (inactive) | EC50 [25]: 5.71 µM (active) | EC50 [26]: 6.54 µM (active) | EC50 [27]: 3.89 µM (active)

CN1CCN(C(=S)c2cn(Cc3ccc(Br)cc3)c3ccccc23)CC1
AC50 [28]: 48.2 µM (active)
